Measurements as given in US9540377B2, “2,6,7,8 substituted purines as HDM2 inhibitors” (Merck Sharp & Dohme Corp., priority 2013, dated 2017).
pIC50: −log10 of the molar value.

The compounds below were run against HDM2 (truncated, residues 17 to 125, containing p53 binding surface) (Homo sapiens (Human), UniProt Q00987) (assay: HDM2 FRET assay (inhibition of binding of FITC labeled p53-site peptide to HDM2)). Conditions: Table 16.
Excerpt: IC50 DETERMINATIONS: Dose-response curves were plotted from the inhibition data, from 10 point serial dilutions of inhibitory compounds. Concentration of compound was plotted against em520/Cem495 ratio signal. To generate IC50 values, the dose-response curves were fitted to a standard sigmoidal curve and IC50 values were derived by nonlinear regression analysis.

Sequence of HDM2 (truncated, residues 17 to 125, containing p53 binding surface) (Q00987 17-125): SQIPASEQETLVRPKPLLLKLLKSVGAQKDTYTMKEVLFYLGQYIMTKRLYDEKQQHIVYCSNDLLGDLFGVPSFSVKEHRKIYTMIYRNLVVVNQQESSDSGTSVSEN

Row | Compound | pIC50
1 | C[C@H]1CC[C@H](Cn2c(N3CCOC4CCCCC43)nc3nc(-c4noc(=O)[nH]4)nc(-c4cncc(Cl)c4)c32)CC1 (single isomer, unassigned) [Example 16.51, 3-[6-(5-chloropyridin-3-yl)-7-[(trans-4-methylcyclohexyl)methyl]-8-(octahydro-4H-1,4-benzoxazin-4-yl)-7H-purin-2-yl]-1,2,4-oxadiazol-5(4H)-one] | 7.52
2 | C[C@H]1CC[C@H](Cn2c(N3CCOC4CCCCC43)nc3nc(-c4noc(=O)[nH]4)nc(-c4cncc(Cl)c4)c32)CC1 (single isomer, unassigned) [Example 16.52, 3-[6-(5-chloropyridin-3-yl)-7-[(trans-4-methylcyclohexyl)methyl]-8-(octahydro-4H-1,4-benzoxazin-4-yl)-7H-purin-2-yl]-1,2,4-oxadiazol-5(4H)-one] | 9.00
3 | COC(C)(C)C1CCCN1c1nc2nc(-c3n[nH]c(=O)o3)nc(-c3cccc(Cl)c3)c2n1C[C@H]1CC[C@H](C)CC1 (single isomer, unassigned) [Example 16.70, 5-{6-(3-chlorophenyl)-8-[2-(1-methoxy-1-methylethyl)pyrrolidin-1-yl]-7-[(trans-4-methylcyclohexyl)methyl]-7H-purin-2-yl}-1,3,4-oxadiazol-2(3H)-one] | 8.64
4 | COC(C)(C)C1CCCN1c1nc2nc(-c3n[nH]c(=O)o3)nc(-c3cccc(Cl)c3)c2n1C[C@H]1CC[C@H](C)CC1 (single isomer, unassigned) [Example 16.71, 5-{6-(3-chlorophenyl)-8-[2-(1-methoxy-1-methylethyl)pyrrolidin-1-yl]-7-[(trans-4-methylcyclohexyl)methyl]-7H-purin-2-yl}-1,3,4-oxadiazol-2(3H)-one] | 8.61
5 | COC(C)(C)C1CCCN1c1nc2nc(-c3noc(=O)[nH]3)nc(-c3cncc(Cl)c3)c2n1C[C@H]1CC[C@H](C)CC1 (single isomer, unassigned) [Example 16.72, 3-{6-(5-chloropyridin-3-yl)-8-[2-(1-methoxy-1-methylethyl)pyrrolidin-1-yl]-7-[(trans-4-methylcyclohexyl)methyl]-7H-purin-2-yl}-1,2,4-oxadiazol-5(4H)-one] | 9.01

Same assay, conditions: Table 23

Row | Compound | pIC50
6 | COC(C)(c1nc2nc(-c3n[nH]c(=O)o3)nc(-c3cncc(Cl)c3)c2n1C[C@H]1CC[C@H](C)CC1)C1CCCC1 (mixture of isomers) [Example 23.72, 5-{6-(5-chloropyridin-3-yl)-8-(1-cyclopentyl-1-methoxyethyl)-7-[(trans-4-methylcyclohexyl)methyl]-7H-purin-2-yl}-1,3,4-oxadiazol-2(3H)-one] | 8.59
7 | COc1ccccc1C(C)(OC)c1nc2nc(-c3n[nH]c(=O)o3)nc(-c3cncc(Cl)c3)c2n1C[C@H]1CC[C@H](C)CC1 (mixture of isomers) [Example 23.78, 5-{6-(5-chloropyridin-3-yl)-8-[1-methoxy-1-(2-methoxyphenyl)ethyl]-7-[(trans-4-methylcyclohexyl)methyl]-7H-purin-2-yl}-1,3,4-oxadiazol-2(3H)-one] | 8.09
8 | COc1ccccc1C(C)(OC)c1nc2nc(-c3noc(=O)[nH]3)nc(-c3cncc(Cl)c3)c2n1C[C@H]1CC[C@H](C)CC1 (mixture of isomers) [Example 23.79, 3-{6-(5-chloropyridin-3-yl)-8-[1-methoxy-1-(2-methoxyphenyl)ethyl]-7-[(trans-4-methylcyclohexyl)methyl]-7H-purin-2-yl}-1,2,4-oxadiazol-5(4H)-one] | 8.42
9 | COC1(c2nc3nc(-c4n[nH]c(=O)o4)nc(-c4cncc(Cl)c4)c3n2C[C@H]2CC[C@H](C)CC2)CCOc2cccnc21 (mixture of isomers) [Example 23.90, 5-{6-(5-chloropyridin-3-yl)-8-(4-methoxy-3,4-dihydro-2H-pyrano[3,2-b]pyridin-4-yl)-7-[(trans-4-methylcyclohexyl)methyl]-7H-purin-2-yl}-1,3,4-oxadiazol-2(3H)-one] | 8.13
10 | CC(C)(C)C(C)(F)c1nc2nc(-c3noc(=O)[nH]3)nc(-c3cncc(Cl)c3)c2n1C[C@H]1CC[C@H](C)CC1 (mixture of isomers) [Example 23.91, 3-{6-(5-chloropyridin-3-yl)-8-(1-fluoro-1,2,2-trimethylpropyl)-7-[(trans-4-methylcyclohexyl)methyl]-7H-purin-2-yl}-1,2,4-oxadiazol-5(4H)-one] | 7.89
11 | C[C@H]1CC[C@H](Cn2c(C3(F)CCOc4cccnc43)nc3nc(-c4n[nH]c(=O)o4)nc(-c4cncc(Cl)c4)c32)CC1 (mixture of isomers) [Example 23.92, 5-{6-(5-chloropyridin-3-yl)-8-(4-fluoro-3,4-dihydro-2H-pyrano[3,2-b]pyridin-4-yl)-7-[(trans-4-methylcyclohexyl)methyl]-7H-purin-2-yl}-1,3,4-oxadiazol-2(3H)-one] | 8.61
12 | COCC(C)(F)c1nc2nc(-c3n[nH]c(=O)o3)nc(-c3cncc(Cl)c3)c2n1C[C@H]1CC[C@H](C)CC1 (mixture of isomers) [Example 23.106, 5-{6-(5-chloropyridin-3-yl)-8-(1-fluoro-2-methoxy-1-methylethyl)-7-[(trans-4-methylcyclohexyl)methyl]-7H-purin-2-yl}-1,3,4-oxadiazol-2(3H)-one] | 8.41
13 | COCC(C)(OC)c1nc2nc(-c3noc(=O)[nH]3)nc(-c3cncc(Cl)c3)c2n1C[C@H]1CC[C@H](C)CC1 (mixture of isomers) [Example 23.107, 3-{6-(5-chloropyridin-3-yl)-8-(1,2-dimethoxy-1-methylethyl)-7-[(trans-4-methylcyclohexyl)methyl]-7H-purin-2-yl}-1,2,4-oxadiazol-5(4H)-one] | 8.27
14 | CC(F)(c1ccccc1C#N)c1nc2nc(-c3noc(=O)[nH]3)nc(-c3cncc(Cl)c3)c2n1C[C@H]1CC[C@H](C)CC1 (mixture of isomers) [Example 23.110, 2-{1-[6-(5-chloropyridin-3-yl)-7-[(trans-4-methylcyclohexyl)methyl]-2-(5-oxo-4,5-dihydro-1,2,4-oxadiazol-3-yl)-7H-purin-8-yl]-1-fluoroethyl}benzonitrile] | 9.29
15 | CC(c1ccccc1F)c1nc2nc(-c3noc(=O)[nH]3)nc(-c3cncc(Cl)c3)c2n1C[C@H]1CC[C@H](C)CC1 (mixture of isomers) [Example 23.113, 3-{6-(5-chloropyridin-3-yl)-8-[1-(2-fluorophenyl)ethyl]-7-[(trans-4-methylcyclohexyl)methyl]-7H-purin-2-yl}-1,2,4-oxadiazol-5(4H)-one] | 8.86
16 | CC(c1ccccc1F)c1nc2nc(-c3n[nH]c(=O)o3)nc(-c3cncc(Cl)c3)c2n1C[C@H]1CC[C@H](C)CC1 (mixture of isomers) [Example 23.114, 5-{6-(5-chloropyridin-3-yl)-8-[1-(2-fluorophenyl)ethyl]-7-[(trans-4-methylcyclohexyl)methyl]-7H-purin-2-yl}-1,3,4-oxadiazol-2(3H)-one] | 8.67
17 | CC(c1c(F)cccc1F)c1nc2nc(-c3noc(=O)[nH]3)nc(-c3cncc(Cl)c3)c2n1C[C@H]1CC[C@H](C)CC1 (mixture of isomers) [Example 23.115, 3-{6-(5-chloropyridin-3-yl)-8-[1-(2,6-difluorophenyl)ethyl]-7-[(trans-4-methylcyclohexyl)methyl]-7H-purin-2-yl}-1,2,4-oxadiazol-5(4H)-one] | 8.65
18 | CC(c1ccccc1C#N)c1nc2nc(-c3noc(=O)[nH]3)nc(-c3cncc(Cl)c3)c2n1C[C@H]1CC[C@H](C)CC1 (mixture of isomers) [Example 23.116, 2-{1-[6-(5-chloropyridin-3-yl)-7-[(trans-4-methylcyclohexyl)methyl]-2-(5-oxo-4,5-dihydro-1,2,4-oxadiazol-3-yl)-7H-purin-8-yl]ethyl}benzonitrile] | 8.62
